Results reported in patent EP0165696A2, “Improved transdermal dosage form” (priority 1984, dated 1985).
Converted amounts (≈) assume the structure as drawn. Each block holds one compound with its values, some of them ahead of it.

Columns and labels:
[1] = In vitro penetration of drug across cadaver skin, modified Franz diffusion cell; type: in vitro ADME, human
Method: The rate of penetration and lag time are determined by studying in vitro the penetration of the drug across cadaver skin, hairless mouse skin or other suitable membrane.
A measured portion of each of the formulations 1A-E was applied to the surface of the cadaver skin. The appearance of drug on the dermal side was monitored quantitatively over six days.
Using formulation 2B, four skin samples from the same person were used to determine the average flux. Using formulation 2C, skin samples from four different people were used to determine the average flux.
All formulations were gelled using 6.5 percent by weight of sodium stearate.
A measured portion of each formulation,8A & B, was applied to the surface of the cadaver skin. The appearance of drug on the dermal side was monitored quantitatively over six days.

[2] = Equilibrium solubility of active ingredients in solvents; type: physicochemical; details: organic solvent or mixture, 34 °C
Method: An exact amount of saturated solution is withdrawn into a volumetric flask while maintaining temperature. The saturated solution is diluted in suitable solvent and the content of active ingredient measured by high pressure liquid chromatography or other suitable analytical method.

- increase in rate of penetration ([1]; mixed solvent system compared to the pure solvents alone, cadaver skin): 3 to 4 times
SMILES: C[C@]12CC[C@@H]3c4ccc(O)cc4CC[C@H]3[C@@H]1CC[C@@H]2O [17-beta-estradiol]

- rate of penetration enhanced ([1]; levonorgestrel, by 10 weight percent of propylene glycol and glycerine combination): 2.7 times
SMILES: C#C[C@]1(O)CC[C@H]2[C@@H]3CCC4=CC(=O)CC[C@@H]4[C@H]3CC[C@@]21CC [Levo-norgestrel]

SMILES: N=C(N)N/N=C/c1c(Cl)cccc1Cl [Guanabenz]
- solubility thermodynamic ([2]; 35/65 propylene glycol/glycerine, 35/65PG/Gly): 21.2 mg/mL (≈ 91.7 mM)
- solubility thermodynamic ([2]; 50/50 propylene glycol/glycerine, 50/50PG/Gly): 29.4 mg/mL (≈ 127 mM)
- solubility thermodynamic ([2]; Glycerine): 7.97 mg/mL (≈ 34.5 mM)
- solubility thermodynamic ([2]; Propylene Glycol): 47 mg/mL (≈ 203 mM)
